The target in assay [1] is T1, MCR-5 (Homo sapiens, UniProt P33032).
T1 construct: expressed in transfected cells; host or cells: HEK 293
As to the kind of experiment: Melanocortin receptor binding assay, competition with 125I-HP 467, HEK 293 cells expressing hMCR-5. Conditions: binding to MCR-5, HEK 293 cells; read-out: MC-5 IC50. An excerpt: All cell culture media and reagents were obtained from GibcoBRL (Gaithersburg Md.), except for COSMIC CALF SERUM (HyClone; Logan Utah). HEK-293 cell lines were transfected with the human MC receptors hMCR-1, hMCR-3, and hMCR-4 (Gantz et al., Biochem. Biophys. Res. Comm. 200:1214-1220 (1994); Gantz et al., J. Biol. Chem. 268:8246-8250 (1993); Gantz et al. J. Biol. Chem. 268:15174-15179 (1993); Haskell-Leuvano et al., Biochem. Biophys. Res. Comm. 204:1137-1142 (1994); each of which is incorporated herein by reference). Vectors for construction of an hMCR-5 expressing cell line were obtained, and a line of HEK 293 cells expressing hMCR-5 was constructed (Gantz, supra, 1994). hMCR-5 has been described previously (Franberg et al., Biochem. Biophys. Res. Commun. 236:489-492 (1997); Chowdhary et al., Cytogenet. Cell Genet. 68:1-2 (1995); Chowdhary et al., Cytogenet. Cell Genet. 68:79-81 (1995), each of which is incorporated herein by reference). HEK 293 cells were maintained in DMEM, 25 mM HEPES, 2 mM glutamine, non-essential amino acids, vitamins, sodium pyruvate, 10% COSMIC CALF SERUM, 100 units/ml penicillin, 100 μg/ml streptomycin and 0.2 mg/ml G418 to maintain selection.
Before assaying, cells were washed once with phosphate buffered saline (“PBS”; without Ca^2+ and Mg^2+), and stripped from the flasks using 0.25% trypsin and 0.5 mM EDTA. Cells were suspended in PBS, 10% COSMIC CALF SERUM and 1 mM CaCl2. Cell suspensions were prepared at a density of 2×10^4 cells/ml for HEK 293 cells expressing hMCR-3, hMCR-4 or hMCR-5, and 1×10^5 cells/ml for HEK 293 cells expressing hMCR-1. Suspensions were placed in a water bath and allowed to warm to 37° C. for 1 hr.
Binding assays were performed in a total volume of 250 μl for HEK 293 cells. Control and test compounds were dissolved in distilled water. ^125I-HP 467 (50,000 dpm) (2000 Ci/mmol) (custom labeled by Amersham; Arlington Heights Ill.) was prepared in 50 mM Tris, pH 7.4, 2 mg/ml BSA, 10 mM CaCl2, 5 mM MgCl2, 2 mM EDTA and added to each tube. To each tube was added 4×10^3 HEK 293 cells expressing hMCR-3, hMCR-4 or hMCR-5, or 2×10^4 cells expressing hMCR-1. Assays were incubated for 2.5 hr at 37° C.
GF/B filter plates were prepared by soaking for at least one hour in 5 mg/ml BSA and 10 mM CaCl2. Assays were filtered using a Brandel 96-well cell harvester (Brandel Inc.; Gaithersburg, Md.). The filters were washed four times with cold 50 mM Tris, pH 7.4, the filter plates were dehydrated for 2 hr and 35 μl of MICROSCINT was added to each well. Filter plates were counted using a Packard Topcount (Packard Instrument Co.) and data analyzed using GraphPad PRISM v2.0 (GraphPad Software Inc.; San Diego Calif.) and Microsoft EXCEL v5.0a (Microsoft Corp.; Redmond Wash.).
To assay isoquinoline compounds, binding assays were performed in duplicate in a 96 well format. HP 467 was prepared in 50 mM Tris, pH 7.4, and ^125I-HP 467 was diluted to give 100,000 dpm per 50 μl. An isoquinoline compound, synthesized as described in Example I, was added to the well in 25 μl aliquots. A 25 μl aliquot of ^125I-HP 467 was added to each well. A 0.2 ml aliquot of suspended cells was added to each well to give the cell numbers indicate above, and the cells were incubated at 37° C. for 2.5 hr. Cells were harvested on GF/B filter plates as described above and counted.
Some of the isoquinoline compounds were further tested for binding to MCR-3 and MCR-5.

In assay [2] the target is T1, MCR-5. As to the kind of experiment: cAMP assay for melanocortin receptors, HEK 293 cells expressing MCR-5. It counts as cell-based. Conditions: read-out: MC-5 EC50 (cAMP). Here is the method:
(§1) HEK 293 cells expressing MCR-1, MCR-3, MCR-4 and MCR-5 were used (see Example II). Cells were plated at 20,000 cells per well in a 96-well plate coated with collagen. The next day, cells were pretreated with 75 μl of 0.4 mM 3-isobutyl-1-methylxanthine (IBMX) in low serum medium containing DMEM, 25 mM HEPES, non-essential amino acids, vitamins, 100 units/ml penicillin, 100 μg/ml streptomycin and 0.1% COSMIC CALF SERUM. IBMX is an inhibitor of cAMP phosphodiesterase. The pretreatment was carried out for 10 min at 37° C.
(§2) Following pretreatment, 25 μl of diluted isoquinoline compound was added to the wells, and cells were incubated for 15 min at 37° C. Cells were lysed by adding 25 μl saponin lysis buffer and incubating 2 to 5 min. Plates were covered and stored at −20° C.
(§3) cAMP concentration was determined by ELISA. Briefly, 96 well ELISA plates were coated with goat anti-cAMP antibody in PBS for 12 to 72 hr at 4° C. 50 μl of sample was mixed with 50 μl of cAMP ELISA buffer containing 1% bovine serum albumin, 10% heat-inactivated donor horse serum, 1% normal mouse serum and 0.05% TWEEN-20 in PBS, and the diluted sample was added to the coated ELISA plate. Standards of known concentrations of cAMP were added to separate wells. 25 μl of 16 ng/ml cAMP-conjugated horse radish peroxidase (HRP) (cAMP-HRP) was added to each well, and the plates were […] at room temperature. Plates were washed and the binding of cAMP-HRP was detected with 3,3′,5,5′-tetramethylbenzidine (TMB) and hydrogen peroxide using standard immunoassay procedures.
(§4) Various isoquinoline compounds were tested for their ability to activate MC receptor by measuring cAMP as described in Example III.

A further assay concerns the target T2, MCR-3 (Homo sapiens, UniProt P41968).
T2 construct: expressed in transfected cells; host or cells: HEK 293
Description: cAMP assay for melanocortin receptors, HEK 293 cells expressing MCR-3. It counts as cell-based. The note with it: read-out: MC-3 EC50 (cAMP). Here is the method:
as §1, §2, §3, §4

T2 sequence (P41968 whole entry): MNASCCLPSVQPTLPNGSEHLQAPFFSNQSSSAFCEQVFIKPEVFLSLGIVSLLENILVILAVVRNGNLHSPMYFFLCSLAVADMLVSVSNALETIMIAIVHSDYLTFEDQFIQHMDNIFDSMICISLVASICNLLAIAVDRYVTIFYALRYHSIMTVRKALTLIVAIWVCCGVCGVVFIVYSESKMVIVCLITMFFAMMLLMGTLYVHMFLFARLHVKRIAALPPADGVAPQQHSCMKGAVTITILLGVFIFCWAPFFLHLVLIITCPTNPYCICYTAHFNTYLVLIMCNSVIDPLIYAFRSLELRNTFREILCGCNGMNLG
T1 sequence (P33032 whole entry): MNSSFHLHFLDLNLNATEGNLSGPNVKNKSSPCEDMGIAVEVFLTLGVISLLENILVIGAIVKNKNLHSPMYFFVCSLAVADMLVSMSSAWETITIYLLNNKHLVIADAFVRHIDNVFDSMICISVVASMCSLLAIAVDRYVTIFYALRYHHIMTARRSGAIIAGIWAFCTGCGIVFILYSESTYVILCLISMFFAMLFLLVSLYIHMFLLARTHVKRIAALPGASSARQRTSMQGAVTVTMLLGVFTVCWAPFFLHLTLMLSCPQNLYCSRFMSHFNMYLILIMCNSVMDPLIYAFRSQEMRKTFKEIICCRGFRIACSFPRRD

On to `CNC(CN)CN1Cc2ccccc2C(CNC2CCCCC2)C1c1ccc(O)cc1` (stereo not drawn) [TRG 2405-156], for which the IC50 on MCR-5 [1] came out at 2.83 µM. The EC50 on MCR-5 [2] and on MCR-3 was greater than 50 µM throughout.

As to `CNC(CN)CCCCN1Cc2ccccc2C(CNC2CCCCC2)C1c1ccc(Cl)cc1Cl` (stereo not drawn) [TRG 2405-190], on MCR-5 [1], the IC50 worked out at 0.8 µM.

Consider `CNC(CN)CCCCN1Cc2ccccc2C(CNC2CCCCC2)C1c1ccc(N(C)C)cc1` (stereo not drawn) [TRG 2405-235], for which the IC50 at MCR-5 [1] was determined as 2.82 µM.

Regarding `CNC(CN)CCCCN1Cc2ccccc2C(CNC2CCCCC2)C1c1ccc(C(F)(F)F)cc1` (stereo not drawn) [TRG 2405-238], at MCR-5 [1], the 50% inhibitory concentration (IC50) worked out at 0.43 µM. Besides, the EC50 at MCR-5 [2] and on MCR-3 was greater than 50 µM in each case.

On to `CCNc1ccc(C2C(CNC3CCCCC3)c3ccccc3CN2CCCCC(CN)NC)cc1` (stereo not drawn) [TRG 2405-239], for which the IC50 on MCR-5 [1] was 8.72 µM. For the same molecule, the EC50 on MCR-5 [2] and at MCR-3 was greater than 50 µM in each case.

For `CNC(CN)CCCCN1Cc2ccccc2C(CNC2CCCCC2)C1c1ccc(-c2ccccc2)cc1` (stereo not drawn) [TRG 2405-241], the IC50 at MCR-5 [1] came out at 1.04 µM. Besides, the EC50 at MCR-5 [2] and on MCR-3 was greater than 50 µM each time.

As to `CNC(CN)CCCCN1Cc2ccccc2C(CNC2CCCCC2)C1c1ccc(Br)cc1` (stereo not drawn) [TRG 2405-242], at MCR-5 [1], the IC50 was 0.41 µM. Moreover, the EC50 on MCR-5 [2] and on MCR-3 was greater than 50 µM in each case.

On to `CNC(CN)CCCCN1Cc2ccccc2C(CNC2CCCCC2)C1c1ccc(O)cc1` (stereo not drawn) [TRG 2405-246], for which, on MCR-5 [1], the IC50 was greater than 10 µM. Also, the EC50 on MCR-5 [2] and on MCR-3 was greater than 50 µM throughout.

On to `CNC(CN)CCCCN1Cc2ccccc2C(CNC2CCCCC2)C1c1ccc(Oc2ccccc2)cc1` (stereo not drawn) [TRG 2405-252], for which, at MCR-5 [1], the IC50 amounted to 1.86 µM. Further, the EC50 at MCR-5 [2] and at MCR-3 was greater than 50 µM throughout.

With `CCCOc1ccc(C2C(CNC3CCCCC3)c3ccccc3CN2CCCCC(CN)NC)cc1` (stereo not drawn) [TRG 2405-253], the half-inhibitory concentration (IC50) on MCR-5 [1] amounted to 2.77 µM. Besides, the EC50 on MCR-5 [2] and at MCR-3 was greater than 50 µM each time.

With `CNC(CN)CCCCN1Cc2ccccc2C(CNC2CCCCC2)C1c1ccc2cccc(O)c2n1` (stereo not drawn) [TRG 2405-262], the IC50 on MCR-5 [1] was greater than 10 µM. Also, the EC50 at MCR-5 [2] and at MCR-3 was greater than 50 µM in each case.

On to `CNC(CN)CCCCN1Cc2ccccc2C(CN)C1c1ccc(Cl)cc1Cl` (stereo not drawn) [TRG 2407-39], for which the IC50 on MCR-5 [1] came out at 0.24 µM.

Turning to `CCNc1ccc(C2C(CNC3CCCCC3)c3ccccc3CN2CCCCC(CN)NC)cc1` (stereo not drawn) [TRG 2408-30], at MCR-5 [1], the IC50 worked out at 9.35 µM.

Regarding `CCNc1ccc(C2C(CNCc3ccccc3O)c3ccccc3CN2CCCC(CN)NCCc2ccccc2)cc1` (stereo not drawn) [TRG 2408-57], the IC50 on MCR-5 [1] worked out at 1.7 µM.

For the molecule `CCNc1ccc(C2C(CNC3CCCCC3)c3ccccc3CN2CCCC(CN)NCCc2ccccc2)cc1` (stereo not drawn) [TRG 2408-62], the IC50 at MCR-5 [1] was 2.79 µM.

These data come from patent US6608082B1, “Treatment of erectile dysfunction using isoquinoline compound melanocortin receptor ligands” (Lion Bioscience AG, priority 1998, dated 2003).
